Measurements as given in a melting point compilation (Tetko et al.; mined from patent text by program, amines drawn as free bases though some values may be those of a salt).

Point of comparison: CCN1CC2CCCC2C1CNC(=O)c1cc(S(N)(=O)=O)ccc1OC (centres undefined), melting point 232 °C. Against it:
- CC(C)(C)OC(=O)N1CCC(c2ccc(COc3ccc([N+](=O)[O-])cc3)nc2)CC1 — lower, 149 to 150 °C
- Brc1ccn(-c2ccc(-c3ccccc3)cc2)c1 — lower, 141 to 143 °C
- CC1(C)C(=O)C(c2ccccc2)=C1c1ccc(S(N)(=O)=O)cc1 — lower, 142 to 144 °C
- CN(C)c1nc(=O)c(C(C)(C)C)nn1N — lower, 168 to 169 °C
- CC1(Cn2c(=O)oc3ccc(Br)cc32)Cn2cc([N+](=O)[O-])nc2O1 (centres undefined) — higher, 243 to 246 °C
- C=CCc1cc2c(cc1O)CC(CCc1ccccc1)O2 (centres undefined) — lower, 79 to 80 °C
- COc1cc(OCCOc2ccc3ccccc3c2)cc(OC)c1C(=O)C(=O)O — lower, 154 °C
- COc1ccc(C(Sc2ccc3ccccc3c2N)C(O)C(=O)O)cc1 (centres undefined) — lower, 160 to 161 °C
- COc1ccc2ccc(N3C(=O)c4ccccc4C3CC(=O)C3CCCCC3)nc2n1 (centres undefined) — lower, 140 °C
- COc1ccc(-c2nc3c(C(N)=O)cccc3n2C)cc1 — higher, 289 to 292 °C
- CC/C(=C(/C)C#N)c1cccc(O)c1 — lower, 80 to 83 °C
- O=C(O)c1cccc2c1CCC2Cl (centres undefined) — lower, 136 to 138 °C
- CCn1nnnc1C(C=O)=C(c1ccc(F)cc1)c1ccc(F)cc1 — lower, 144 to 145 °C
- CC(=S)NC[C@H]1CN(c2ccc(N3CCN(C(=O)CO)CC3)c(F)c2)C(=O)O1 — lower, 163 to 165 °C
- COc1ccc(-c2cncc(OC3SCC(O)C(O)C3O)c2)cc1OC (centres undefined) — lower, 211 °C
- CN1CCC(OC(c2cccc(N)c2)c2nc3ccccc3[nH]2)CC1 (centres undefined) — lower, 100 °C
- O=S1CSC(=C(c2ccc(F)cc2)c2ccc(F)cc2)SC1 (centres undefined) — lower, 155 to 156 °C
- CCOC(=O)C1=Cc2cc(I)ccc2OC1C(F)(F)F (centres undefined) — lower, 105 to 106 °C
- CCOC(=O)CNC(=O)NCCCSc1nccc(NC(N)=NCC(F)(F)F)n1 — lower, 165 to 166 °C
- COc1ccc2sc(C(=O)Nc3ccc(S(=O)(=O)OC)cc3)c(OC(C)C)c2c1 — lower, 176 to 177 °C
- CNC1N=CN(c2c(C)cccc2Cl)C(=O)N1 (centres undefined) — higher, 254 to 256 °C
- O=C(O)c1ccc(C(c2ccccc2)(c2ccc(C(=O)O)c(C(=O)O)c2)C(F)(F)F)cc1C(=O)O — lower, 210 to 213 °C
- CCN(CC)CC(O)c1c[nH]c2c1ccc1c3ccccc3[nH]c12 (centres undefined) — lower, 148 to 150 °C
- Cn1c(=O)[nH]c(=O)c2c1ncn2CC(C)(C)O — higher, 268 to 269 °C
- CC(C)(C)OC(=O)CN1C(=O)C(N2C(=O)c3ccccc3C2=O)CCc2ccccc21 (centres undefined) — lower, 194 to 197 °C
- CCCn1nc(O)c2cc(Cl)c(Cl)cc2c1=O — lower, 223 °C
- Cc1cccc2c1C(=O)N1CC[C@H]1c1c(C(=O)OC(C)(C)C)ncn1-2 — lower, 191 to 192 °C
- CCON=C(C)c1cccc(Oc2nc(OC)cc(OC)n2)c1C(=O)OC — lower, 93 to 95 °C
- Cc1cc(-c2ccc(C(F)(F)F)nc2)nc(-c2cccc(-c3cccc(S(N)(=O)=O)c3)n2)n1 — higher, 254 °C
- N#Cc1ccc(F)cc1C(F)(F)C(F)(F)c1ccccc1 — lower, 68 to 70 °C
- OCC(CO)(COCc1ccccc1)COCc1ccccc1 — lower, 73 °C
- CCn1ncc2c1ncc1c(NCCCN(C)C)nc3cc(C)nn3c12 — lower, 178 to 179 °C
- CC1(C)OC[C@H](COc2nc(Oc3ccc(F)cc3F)nc3[nH]nc(-c4ccccc4Cl)c23)O1 — lower, 70.1 to 75.9 °C
- CCCCCCCCCCCC(CC(=O)O)OC(C)=O (racemic) — lower, 37 °C
- COCn1c(Cl)c(Cl)c(C#N)c1Cl — lower, 48 to 49 °C
- CCCN1CCC(Cc2ccc3c(c2)c(Cc2ccc(C(=O)NS(=O)(=O)c4ccccc4C)cc2OC)cn3C)C1=O (centres undefined) — lower, 112 to 122 °C
- Cc1nnc2n1-c1ccc(C#CCN3C(=O)CCc4ccccc43)cc1C(c1ccccc1F)=NC2 — higher, 236 to 239 °C
- O=C1N(Cc2cncc(F)c2)c2ccccc2C12COc1cc3c(cc12)OCCO3 (centres undefined) — lower, 197 to 200 °C
